Experimental data published in US20100292214A1, “Compounds with Antiparasitic Activity, Applications thereof to the Treatment of Infectious Diseases Caused by Apicomplexans” (commissariat a l'Energie Atomique, priority 2007, published 2010).
pIC50: −log10 of the molar value. Structures can show the parent of a compound that is named as a salt.

Legend:
[1] = system: Toxoplasma gondii RH-β1 strain; test: microbe, parasite or virus in culture; format: cell-based; conditions: Toxoplasma gondii, read-out: IC50 assessed on Toxoplama Gondii
[2] = system: asynchronous 3D7 chloroquine-sensitive P. falciparum infected red blood cells; test: Labeled hypoxanthine incorporation assay (in vitro anti-malarial activity); format: cell-based; conditions: Plasmodium falciparum, 3D7, Erythrocyte, 3D7 chloroquine-sensitive strain, infected RBC, 48 h contact, [3H]-hypoxanthine incorporation; two independent experiments in duplicates; read-out: IC50 assessed on Plasmodium Falciparum

Row | Compound | pIC50 [1] | pIC50 [2]
1 | COc1ccc(CN(CCOC(=O)N2CCC(n3c(=O)[nH]c4ccccc43)CC2)Cc2ccccc2)cc1 [Compound 121, 2-(benzyl(4-methoxybenzyl)amino)ethyl 4-(2-oxo-2,3-dihydro-1H-benzo[d]imidazol-1-yl)piperidine-1-carboxylate hydrochloride] | 5.30 | 5.46
2 | COc1cccc(CN(CCOC(=O)N2CCC(n3c(=O)[nH]c4ccccc43)CC2)Cc2ccccc2)c1 [Compound 122, 2-(benzyl(3-methoxybenzyl)amino)ethyl 4-(2-oxo-2,3-dihydro-1H-benzo[d]imidazol-1-yl)piperidine-1-carboxylate hydrochloride] | 5.76 | 5.43
3 | O=C(OCCN(Cc1ccccc1)Cc1cccc(Oc2ccccc2)c1)N1CCC(n2c(=O)[nH]c3ccccc32)CC1 [Compound 123, 2-(benzyl(3-phenoxybenzyl)amino)ethyl 4-(2-oxo-2,3-dihydro-1H-benzo[d]imidazol-1-yl)piperidine-1-carboxylate hydrochloride] | 5.43 | 5.85
4 | C[C@@H](COC(=O)N1CCC(n2c(=O)[nH]c3ccccc32)CC1)N(CCCc1ccccc1)Cc1ccccc1 [Compound 125, (S)-2-(benzyl(3-phenylpropyl)amino)propyl 4-(2-oxo-2,3-dihydro-1H-benzo[d]imidazol-1-yl)piperidine-1-carboxylate hydrochloride] | 5.40 | 5.38
5 | COc1cccc(CN(Cc2ccccc2)[C@@H](C)COC(=O)N2CCC(n3c(=O)[nH]c4ccccc43)CC2)c1 [Compound 126, (S)-2-(benzyl(3-methoxybenzyl)amino)propyl 4-(2-oxo-2,3-dihydro-1H-benzo[d]imidazol-1-yl)piperidine-1-carboxylate hydrochloride] | 5.43 | 5.40
6 | C[C@@H](COC(=O)N1CCC(n2c(=O)[nH]c3ccccc32)CC1)N(Cc1ccccc1)Cc1cccc(Cl)c1 [Compound 128, (S)-2-(benzyl(3-chlorobenzyl)amino)propyl 4-(2-oxo-2,3-dihydro-1H-benzo[d]imidazol-1-yl)piperidine-1-carboxylate hydrochloride] | 5.30 | 5.69
7 | O=C(OCCN(Cc1ccccc1)Cc1ccnc2ccccc12)N1CCC(n2c(=O)[nH]c3ccccc32)CC1 [Compound 131, 2-(benzyl(quinolin-4-ylmethyl)amino)ethyl 4-(2-oxo-2,3-dihydro-1H-benzo[d]imidazol-1-yl)piperidine-1-carboxylate hydrochloride] | 5.98 | 5.53
8 | Cn1c(CN(CCOC(=O)N2CCC(n3c(=O)[nH]c4ccccc43)CC2)Cc2ccccc2)cc2ccccc21 [Compound 132, 2-(benzyl((1-methyl-1H-indol-2-yl)methyl)amino)ethyl 4-(2-oxo-2,3-dihydro-1H-benzo[d]imidazol-1-yl)piperidine-1-carboxylate hydrochloride] | 5.92 | 5.38
9 | C[C@@H](COC(=O)N1CCC(n2c(=O)[nH]c3ccccc32)CC1)N(Cc1ccccc1)Cc1ccnc2ccccc12 [Compound 133, (S)-2-(benzyl(quinolin-4-ylmethyl)amino)propyl 4-(2-oxo-2,3-dihydro-1H-benzo[d]imidazol-1-yl)piperidine-1-carboxylate hydrochloride] | 6.00 | 5.59
10 | O=C(OCCCN(Cc1ccccc1)Cc1ccccn1)N1CCC(n2c(=O)[nH]c3ccccc32)CC1 [Compound 135, 3-(benzyl(pyridin-2-ylmethyl)amino)propyl 4-(2-oxo-2,3-dihydro-1H-benzo[d]imidazol-1-yl)piperidine-1-carboxylate hydrochloride] | 5.64 | 5.44
11 | C[C@@H](COC(=O)N1CCC(n2c(=O)[nH]c3ccccc32)CC1)N(Cc1ccccc1)Cc1cccc(OCc2ccccc2)c1 [Compound 136, (S)-2-(benzyl(3-(benzyloxy)benzyl)amino)propyl 4-(2-oxo-2,3-dihydro-1H-benzo[d]imidazol-1-yl)piperidine-1-carboxylate hydrochloride] | 6.10 | 5.80
12 | C[C@@H](COC(=O)N1CCC(n2c(=O)[nH]c3ccccc32)CC1)N(Cc1ccccc1)Cc1cc2ccccc2c2ccccc12 [Compound 137, (S)-2-(benzyl(phenanthren-9-ylmethyl)amino)propyl 4-(2-oxo-2,3-dihydro-1H-benzo[d]imidazol-1-yl)piperidine-1-carboxylate hydrochloride] | 6.15 | 5.79
13 | C[C@@H](COC(=O)N1CCC(n2c(=O)[nH]c3ccccc32)CC1)N(Cc1ccccc1)Cc1cccc2ccccc12 [Compound 138, (S)-2-(benzyl(naphthalen-1-ylmethyl)amino)propyl 4-(2-oxo-2,3-dihydro-1H-benzo[d]imidazol-1-yl)piperidine-1-carboxylate hydrochloride] | 5.43 | 5.59
14 | C[C@@H](COC(=O)N1CCC(n2c(=O)[nH]c3ccccc32)CC1)N(Cc1ccccc1)Cc1cccs1 [Compound 139, (S)-2-(benzyl(thiophen-2-ylmethyl)amino)propyl 4-(2-oxo-2,3-dihydro-1H-benzo[d]imidazol-1-yl)piperidine-1-carboxylate hydrochloride] | 5.30 | 5.47
15 | C[C@@H](COC(=O)N1CCC(n2c(=O)[nH]c3ccccc32)CC1)N(Cc1ccccc1)Cc1ccccn1 [Compound 140, (S)-2-(benzyl(pyridin-2-ylmethyl)amino)propyl 4-(2-oxo-2,3-dihydro-1H-benzo[d]imidazol-1-yl)piperidine-1-carboxylate hydrochloride] | 5.74 | 5.41
16 | O=C(OCCCN(Cc1ccccc1)Cc1cccs1)N1CCC(n2c(=O)[nH]c3ccccc32)CC1 [Compound 141, 3-(benzyl(thiophen-2-ylmethyl)amino)propyl 4-(2-oxo-2,3-dihydro-1H-benzo[d]imidazol-1-yl)piperidine-1-carboxylate hydrochloride] | 5.40 | 5.38
17 | O=C(OCCCN(Cc1ccccc1)Cc1cccc(Cl)c1)N1CCC(n2c(=O)[nH]c3ccccc32)CC1 [Compound 142, 3-(benzyl(3-chlorobenzyl)amino)propyl 4-(2-oxo-2,3-dihydro-1H-benzo[d]imidazol-1-yl)piperidine-1-carboxylate hydrochloride] | 5.92 | 5.53
18 | O=C(OCCCN(Cc1ccccc1)Cc1cccc2ccccc12)N1CCC(n2c(=O)[nH]c3ccccc32)CC1 [Compound 144, 3-(benzyl(naphthalen-1-ylmethyl)amino)propyl 4-(2-oxo-2,3-dihydro-1H-benzo[d]imidazol-1-yl)piperidine-1-carboxylate hydrochloride] | 5.57 | 5.49
19 | O=C(OCCCN(Cc1ccccc1)Cc1ccnc2ccccc12)N1CCC(n2c(=O)[nH]c3ccccc32)CC1 [Compound 145, 3-(benzyl(quinolin-4-ylmethyl)amino)propyl 4-(2-oxo-2,3-dihydro-1H-benzo[d]imidazol-1-yl)piperidine-1-carboxylate hydrochloride] | 5.48 | 6.14
20 | O=C(OCCCN(Cc1ccccc1)Cc1cccc(Oc2ccccc2)c1)N1CCC(n2c(=O)[nH]c3ccccc32)CC1 [Compound 146, 3-(benzyl(3-phenoxybenzyl)amino)propyl 4-(2-oxo-2,3-dihydro-1H-benzo[d]imidazol-1-yl)piperidine-1-carboxylate hydrochloride] | 5.82 | 5.71
